We go through two compounds from patent US4552965A, “2α, 3β, 4aβ, 8aα-Decahydro-3-(4-phenyl-1-piperidinyl)-2-naphthalenol” (University of California, priority 1984, dated 1985).

Each structure is given as a SMILES string.

The test relates to Torpedo californica electric organ synpatic vesicles. As to the kind of experiment: Inhibition of ATP-dependent uptake of radioactive ACh by purified Torpedo electric organ synaptic vesicles in vitro. Type of test: biochemical. The following applies: for IC50: purified Torpedo vesicles, room temperature, approximately 30 minutes, neutral pH, approximately 5 mM ATP, 50 μM radioactive ACh, read-out: IC50 (inhibition of vesicular ACh uptake). The protocol:
For example, purified Torpedo californica electric organ synpatic vesicles uptake ACh in vitro in the presence of ATP. Such vesicles are incubated at room temperature for approximately 30 minutes in isosmotic buffer at neutral PH, the buffer containing approximately 5 mM ATP and 50 μM radioactive ACh, and the radioactivity accumulated by the washed vesicles is then measured by liquid scintillation spectroscopy. By varying the concentration of the compound to be tested to determine its inhibitory effect on ACh uptake, a dose response curve can be deduced including the IC50.

The IC50 is the concentration that inhibits the measured activity by half.

`O[C@@H]1C[C@H]2CCCC[C@@H]2C[C@H]1N1CCC(c2ccccc2)CC1` (relative stereo) [DPPN, (2α, 3β, 4aβ, 8aα)-decahydro-3-(4-phenyl-1-piperidinyl)-2-naphthalenol]: the IC50 turned out to be 10 µM. For the setting “relative to AH 5183”, the “times more effective than AH 5183 in preventing ACh uptake by the vesicles” value is “approximately four”.

As for `OC1CCCCC1N1CCC(c2ccccc2)CC1` (stereo not shown) [AH 5183, 2-(4-Phenylpiperidino)-cyclohexanol], the IC50 came out at 40 µM. Also, where the note is “relative to DPPN”, the “concentration needed relative to DPPN for comparable blockade of vesicular uptake of ACh” value is on record as “at least four”.
